# From PubChem BioAssay (NCI)
# Several values for one entry are separate records, joined by “and”; a condition that tells them apart may be missing. Equal entries are not always repeated.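 All cell lines were grown in 96-well plates and treated with compound for 48 hours. At the GI50, growth is halved. Definition used: TGI = concentration required for complete inhibition of growth.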
# System: ACHN renal
# Experiment: NCI-60 cell line screen, 48 h
Compound,GI50 [µM],TGI [µM]
Nc1nc(N)c2nc(CNc3ccc(C(=O)NC(CC(=O)O)C(=O)O)cc3)cnc2n1 (stereo not drawn),2.45,> 100
CC(=O)OC[C@]12CC[C@@H](C(=O)CBr)[C@@H]1[C@H]1CC[C@@H]3[C@@]4(C)CCCNC(C)(C)[C@@H]4CC[C@@]3(C)[C@]1(C)CC2,2.02,4.28
COc1cc2c3c(n(CCCCN)c(=O)c2cc1OC)-c1cc2c(cc1C3=O)OCO2,0.38,1.35
N#CCCN(CCCN(CCCN(C(=O)Nc1ccccc1)c1ccccc1)C(=O)Nc1ccccc1)C(=O)Nc1ccccc1,–,> 8.75
C=CCC1(O)c2ccccc2C(=O)c2c(NCCN(CC(=O)OCC)CC(=O)OCC)cccc21 (stereo not drawn),> 100,> 100
COc1cccc(-n2nc(C)c3c(N/N=C(\C)c4ccncc4)ncnc32)c1,> 25,> 25
Cc1ccc(-c2nc(C#N)c(S(=O)(=O)n3nc(C)cc3N)o2)cc1,1.91,3.38
CCn1cnc(C[C@H](NC(=O)[C@@H](NC(=O)Nc2cc(C(F)(F)F)cc(C(F)(F)F)c2)C(C)C)C(=O)OC)c1,5.94,> 10
O=C(Nc1cccc(-n2cc(-c3ccncc3)c(-c3ccc(Cl)c(O)c3)n2)c1)c1ccc(N2CCOCC2)c(C(F)(F)F)c1,1.92,> 50
COc1ccc(/C=C/C(=O)c2ccc(O)c(CN3CCN(c4cc5c(cc4F)c(=O)c(C(=O)O)cn5C4CC4)CC3)c2)cc1,2.18,17.9
NC(=O)c1ccc(I)c(N=O)c1,30.8,> 100
COC(=O)c1ccccc1OCc1cc(=O)oc2ccc(C)cc12,–,> 100
O=[N+]([O-])c1ccc2c(c1)Cc1cc(N=Cc3ccc4c(c3)OCO4)ccc1-2,–,> 100

# System: CAKI-1 renal
# Experiment: NCI-60 cell line screen, 48 h
Compound,GI50 [µM],TGI [µM]
Nc1nc(N)c2nc(CNc3ccc(C(=O)NC(CC(=O)O)C(=O)O)cc3)cnc2n1 (stereo not drawn),0.481,12.4
CC(=O)OC[C@]12CC[C@@H](C(=O)CBr)[C@@H]1[C@H]1CC[C@@H]3[C@@]4(C)CCCNC(C)(C)[C@@H]4CC[C@@]3(C)[C@]1(C)CC2,1.81,4.13
COc1cc2c3c(n(CCCCN)c(=O)c2cc1OC)-c1cc2c(cc1C3=O)OCO2,0.656,4.12
N#CCCN(CCCN(CCCN(C(=O)Nc1ccccc1)c1ccccc1)C(=O)Nc1ccccc1)C(=O)Nc1ccccc1,> 100,> 100
C=CCC1(O)c2ccccc2C(=O)c2c(NCCN(CC(=O)OCC)CC(=O)OCC)cccc21 (stereo not drawn),> 100,> 100
COc1cccc(-n2nc(C)c3c(N/N=C(\C)c4ccncc4)ncnc32)c1,> 25,> 25
Cc1ccc(-c2nc(C#N)c(S(=O)(=O)n3nc(C)cc3N)o2)cc1,4.3,14.2
CCn1cnc(C[C@H](NC(=O)[C@@H](NC(=O)Nc2cc(C(F)(F)F)cc(C(F)(F)F)c2)C(C)C)C(=O)OC)c1,> 10,> 10
O=C(Nc1cccc(-n2cc(-c3ccncc3)c(-c3ccc(Cl)c(O)c3)n2)c1)c1ccc(N2CCOCC2)c(C(F)(F)F)c1,2.78,24.6
COc1ccc(/C=C/C(=O)c2ccc(O)c(CN3CCN(c4cc5c(cc4F)c(=O)c(C(=O)O)cn5C4CC4)CC3)c2)cc1,2.35,> 100
NC(=O)c1ccc(I)c(N=O)c1,20,45.4
COC(=O)c1ccccc1OCc1cc(=O)oc2ccc(C)cc12,–,> 100
O=[N+]([O-])c1ccc2c(c1)Cc1cc(N=Cc3ccc4c(c3)OCO4)ccc1-2,–,> 100

# System: CCRF-CEM leukemia
# Experiment: NCI-60 cell line screen, 48 h
Compound,GI50 [µM],TGI
Nc1nc(N)c2nc(CNc3ccc(C(=O)NC(CC(=O)O)C(=O)O)cc3)cnc2n1 (stereo not drawn),0.422,> 100 µM
CC(=O)OC[C@]12CC[C@@H](C(=O)CBr)[C@@H]1[C@H]1CC[C@@H]3[C@@]4(C)CCCNC(C)(C)[C@@H]4CC[C@@]3(C)[C@]1(C)CC2,1.06,3.29 µM
COc1cc2c3c(n(CCCCN)c(=O)c2cc1OC)-c1cc2c(cc1C3=O)OCO2,0.0913,3.75 µM
N#CCCN(CCCN(CCCN(C(=O)Nc1ccccc1)c1ccccc1)C(=O)Nc1ccccc1)C(=O)Nc1ccccc1,4.35,> 8.75 µM and 43.1 µM
C=CCC1(O)c2ccccc2C(=O)c2c(NCCN(CC(=O)OCC)CC(=O)OCC)cccc21 (stereo not drawn),> 100,> 100 µM
COc1cccc(-n2nc(C)c3c(N/N=C(\C)c4ccncc4)ncnc32)c1,> 25,> 25 µM
Cc1ccc(-c2nc(C#N)c(S(=O)(=O)n3nc(C)cc3N)o2)cc1,2.55,7.83 µM
CCn1cnc(C[C@H](NC(=O)[C@@H](NC(=O)Nc2cc(C(F)(F)F)cc(C(F)(F)F)c2)C(C)C)C(=O)OC)c1,3.38,> 10 µM
O=C(Nc1cccc(-n2cc(-c3ccncc3)c(-c3ccc(Cl)c(O)c3)n2)c1)c1ccc(N2CCOCC2)c(C(F)(F)F)c1,1.82,> 50 µM
COc1ccc(/C=C/C(=O)c2ccc(O)c(CN3CCN(c4cc5c(cc4F)c(=O)c(C(=O)O)cn5C4CC4)CC3)c2)cc1,0.805,> 100 µM
NC(=O)c1ccc(I)c(N=O)c1,40.5,> 100 µM
COC(=O)c1ccccc1OCc1cc(=O)oc2ccc(C)cc12,–,> 100 µM
O=[N+]([O-])c1ccc2c(c1)Cc1cc(N=Cc3ccc4c(c3)OCO4)ccc1-2,–,> 100 µM

# System: HOP-92 NSCLC
# Experiment: NCI-60 cell line screen, 48 h
Compound,GI50 [µM],TGI [µM]
Nc1nc(N)c2nc(CNc3ccc(C(=O)NC(CC(=O)O)C(=O)O)cc3)cnc2n1 (stereo not drawn),> 100,> 100
CC(=O)OC[C@]12CC[C@@H](C(=O)CBr)[C@@H]1[C@H]1CC[C@@H]3[C@@]4(C)CCCNC(C)(C)[C@@H]4CC[C@@]3(C)[C@]1(C)CC2,1.6,3.7
COc1cc2c3c(n(CCCCN)c(=O)c2cc1OC)-c1cc2c(cc1C3=O)OCO2,0.487,2.43
N#CCCN(CCCN(CCCN(C(=O)Nc1ccccc1)c1ccccc1)C(=O)Nc1ccccc1)C(=O)Nc1ccccc1,–,80.4
C=CCC1(O)c2ccccc2C(=O)c2c(NCCN(CC(=O)OCC)CC(=O)OCC)cccc21 (stereo not drawn),> 100,> 100
COc1cccc(-n2nc(C)c3c(N/N=C(\C)c4ccncc4)ncnc32)c1,1.86,16.9
Cc1ccc(-c2nc(C#N)c(S(=O)(=O)n3nc(C)cc3N)o2)cc1,2.27,5.71
CCn1cnc(C[C@H](NC(=O)[C@@H](NC(=O)Nc2cc(C(F)(F)F)cc(C(F)(F)F)c2)C(C)C)C(=O)OC)c1,6.88,> 10
O=C(Nc1cccc(-n2cc(-c3ccncc3)c(-c3ccc(Cl)c(O)c3)n2)c1)c1ccc(N2CCOCC2)c(C(F)(F)F)c1,0.555,3.81
COc1ccc(/C=C/C(=O)c2ccc(O)c(CN3CCN(c4cc5c(cc4F)c(=O)c(C(=O)O)cn5C4CC4)CC3)c2)cc1,1.23,6.21
NC(=O)c1ccc(I)c(N=O)c1,67.1,> 100
COC(=O)c1ccccc1OCc1cc(=O)oc2ccc(C)cc12,–,> 74.7
O=[N+]([O-])c1ccc2c(c1)Cc1cc(N=Cc3ccc4c(c3)OCO4)ccc1-2,–,> 100

# System: MALME-3M melanoma
# Experiment: NCI-60 cell line screen, 48 h
Compound,GI50 [µM],TGI
Nc1nc(N)c2nc(CNc3ccc(C(=O)NC(CC(=O)O)C(=O)O)cc3)cnc2n1 (stereo not drawn),> 100,> 100 µM
CC(=O)OC[C@]12CC[C@@H](C(=O)CBr)[C@@H]1[C@H]1CC[C@@H]3[C@@]4(C)CCCNC(C)(C)[C@@H]4CC[C@@]3(C)[C@]1(C)CC2,2,4.29 µM
COc1cc2c3c(n(CCCCN)c(=O)c2cc1OC)-c1cc2c(cc1C3=O)OCO2,4.11,11.2 µM
N#CCCN(CCCN(CCCN(C(=O)Nc1ccccc1)c1ccccc1)C(=O)Nc1ccccc1)C(=O)Nc1ccccc1,16,> 8.75 µM and 67.2 µM
C=CCC1(O)c2ccccc2C(=O)c2c(NCCN(CC(=O)OCC)CC(=O)OCC)cccc21 (stereo not drawn),> 100,> 100 µM
COc1cccc(-n2nc(C)c3c(N/N=C(\C)c4ccncc4)ncnc32)c1,10.3,> 25 µM
Cc1ccc(-c2nc(C#N)c(S(=O)(=O)n3nc(C)cc3N)o2)cc1,1.82,3.54 µM
CCn1cnc(C[C@H](NC(=O)[C@@H](NC(=O)Nc2cc(C(F)(F)F)cc(C(F)(F)F)c2)C(C)C)C(=O)OC)c1,> 10,> 10 µM
O=C(Nc1cccc(-n2cc(-c3ccncc3)c(-c3ccc(Cl)c(O)c3)n2)c1)c1ccc(N2CCOCC2)c(C(F)(F)F)c1,1.25,4.08 µM
COc1ccc(/C=C/C(=O)c2ccc(O)c(CN3CCN(c4cc5c(cc4F)c(=O)c(C(=O)O)cn5C4CC4)CC3)c2)cc1,1.59,16.4 µM
NC(=O)c1ccc(I)c(N=O)c1,34,> 100 µM
COC(=O)c1ccccc1OCc1cc(=O)oc2ccc(C)cc12,–,> 100 µM
O=[N+]([O-])c1ccc2c(c1)Cc1cc(N=Cc3ccc4c(c3)OCO4)ccc1-2,–,> 100 µM
